Laboratory results: the kinase profiling compilation of Christmann-Franck et al. (2016)
One block for each compound: values may come before it.

Assays:
Assay in all cases: KINOMEscan competition binding
Conditions in all cases: compound 10.0 µM
[1] = tested on: ABL1 (human), P00519 [E255K]
[2] = tested on: ABL1 (human), P00519 [F317L]
ACVR2B (human) = ACVR2B (human) (UniProt Q13705)
AKT1 (human) = AKT1 (human) (UniProt P31749)
AXL (human) = AXL (human) (UniProt P30530)
CDK17 (human) = CDK17 (human) (UniProt Q00537)
CDK19 (human) = CDK19 (human) (UniProt Q9BWU1)
CDK9 (human) = CDK9 (human) (UniProt P50750)
CDK9 (human), sequence (P50750 whole entry, looked up): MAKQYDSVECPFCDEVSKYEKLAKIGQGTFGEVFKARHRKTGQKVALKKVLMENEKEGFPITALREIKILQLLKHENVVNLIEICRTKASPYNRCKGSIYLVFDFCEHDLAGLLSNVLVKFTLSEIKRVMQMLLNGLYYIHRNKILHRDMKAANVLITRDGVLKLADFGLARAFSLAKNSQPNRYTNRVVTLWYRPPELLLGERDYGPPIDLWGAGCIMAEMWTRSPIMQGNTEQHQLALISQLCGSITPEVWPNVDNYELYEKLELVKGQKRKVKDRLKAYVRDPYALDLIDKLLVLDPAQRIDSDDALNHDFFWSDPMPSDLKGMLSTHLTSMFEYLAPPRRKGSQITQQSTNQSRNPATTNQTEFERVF

CSF1R (human) = CSF1R (human) (UniProt P07333)
CSNK1E (human) = CSNK1E (human) (UniProt P49674)
CSNK2A1 (human) = CSNK2A1 (human) (UniProt P68400)
CSNK2A1 (human), sequence (P68400 whole entry, looked up): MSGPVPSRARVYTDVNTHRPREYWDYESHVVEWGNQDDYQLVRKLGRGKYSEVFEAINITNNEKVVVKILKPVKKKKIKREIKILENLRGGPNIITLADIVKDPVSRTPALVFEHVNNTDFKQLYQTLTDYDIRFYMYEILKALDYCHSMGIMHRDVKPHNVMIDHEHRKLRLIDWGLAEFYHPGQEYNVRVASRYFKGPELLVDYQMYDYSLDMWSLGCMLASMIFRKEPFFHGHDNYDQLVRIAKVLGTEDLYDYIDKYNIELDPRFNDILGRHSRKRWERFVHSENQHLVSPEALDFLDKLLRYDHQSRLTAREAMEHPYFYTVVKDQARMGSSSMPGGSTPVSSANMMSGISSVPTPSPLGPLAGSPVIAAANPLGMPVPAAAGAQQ

CSNK2A2 (human) = CSNK2A2 (human) (UniProt P19784)
DYRK1A (human) = DYRK1A (human) (UniProt Q13627)
EPHB2 (human) = EPHB2 (human) (UniProt P29323)
FGR (human) = FGR (human) (UniProt P09769)
GRK1 (human) = GRK1 (human) (UniProt Q15835)
GRK1 (human), sequence (Q15835 whole entry, looked up): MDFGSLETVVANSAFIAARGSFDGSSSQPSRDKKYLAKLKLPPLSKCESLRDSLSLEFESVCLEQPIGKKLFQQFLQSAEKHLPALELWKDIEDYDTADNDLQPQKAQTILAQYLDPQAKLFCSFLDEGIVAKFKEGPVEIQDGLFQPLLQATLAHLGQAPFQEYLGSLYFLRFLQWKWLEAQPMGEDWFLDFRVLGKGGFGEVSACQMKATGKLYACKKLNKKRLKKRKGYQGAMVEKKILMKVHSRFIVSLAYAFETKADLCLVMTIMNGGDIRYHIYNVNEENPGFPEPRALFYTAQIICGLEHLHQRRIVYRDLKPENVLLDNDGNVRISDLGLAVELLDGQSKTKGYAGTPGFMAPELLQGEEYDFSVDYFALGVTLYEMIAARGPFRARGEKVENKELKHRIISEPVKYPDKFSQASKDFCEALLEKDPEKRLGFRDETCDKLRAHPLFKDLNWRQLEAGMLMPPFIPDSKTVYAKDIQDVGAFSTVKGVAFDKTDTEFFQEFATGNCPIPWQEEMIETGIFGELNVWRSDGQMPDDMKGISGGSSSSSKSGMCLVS

GSK3A (human) = GSK3A (human) (UniProt P49840)
GSK3A (human), sequence (P49840 whole entry, looked up): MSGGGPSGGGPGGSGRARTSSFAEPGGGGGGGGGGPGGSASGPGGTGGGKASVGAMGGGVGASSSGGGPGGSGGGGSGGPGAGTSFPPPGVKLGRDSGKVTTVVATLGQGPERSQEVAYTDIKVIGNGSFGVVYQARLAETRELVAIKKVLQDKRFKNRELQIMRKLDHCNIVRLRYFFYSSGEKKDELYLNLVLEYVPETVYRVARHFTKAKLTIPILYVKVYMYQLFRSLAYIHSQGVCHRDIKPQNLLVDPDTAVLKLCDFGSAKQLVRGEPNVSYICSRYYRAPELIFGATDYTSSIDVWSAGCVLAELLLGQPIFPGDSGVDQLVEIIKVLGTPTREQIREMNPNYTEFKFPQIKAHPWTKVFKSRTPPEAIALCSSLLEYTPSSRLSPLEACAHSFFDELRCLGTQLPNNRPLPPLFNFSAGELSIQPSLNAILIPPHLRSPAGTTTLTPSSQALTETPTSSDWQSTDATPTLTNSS

[3] = tested on: KIT (human), P10721 [L576P]
MAPK1 (human) = MAPK1 (human) (UniProt P28482)
MAPK14 (human) = MAPK14 (human) (UniProt Q16539)
MAPK15 (human) = MAPK15 (human) (UniProt Q8TD08)
MAPK6 (human) = MAPK6 (human) (UniProt Q16659)
MAPKAPK5 (human) = MAPKAPK5 (human) (UniProt Q8IW41)
MARK3 (human) = MARK3 (human) (UniProt P27448)
MLTK (human) = MLTK (human) (UniProt Q9NYL2)
NEK6 (human) = NEK6 (human) (UniProt Q9HC98)
NLK (human) = NLK (human) (UniProt Q9UBE8)
PAK2 (human) = PAK2 (human) (UniProt Q13177)
PAK4 (human) = PAK4 (human) (UniProt O96013)
PAK4 (human), sequence (O96013 whole entry, looked up): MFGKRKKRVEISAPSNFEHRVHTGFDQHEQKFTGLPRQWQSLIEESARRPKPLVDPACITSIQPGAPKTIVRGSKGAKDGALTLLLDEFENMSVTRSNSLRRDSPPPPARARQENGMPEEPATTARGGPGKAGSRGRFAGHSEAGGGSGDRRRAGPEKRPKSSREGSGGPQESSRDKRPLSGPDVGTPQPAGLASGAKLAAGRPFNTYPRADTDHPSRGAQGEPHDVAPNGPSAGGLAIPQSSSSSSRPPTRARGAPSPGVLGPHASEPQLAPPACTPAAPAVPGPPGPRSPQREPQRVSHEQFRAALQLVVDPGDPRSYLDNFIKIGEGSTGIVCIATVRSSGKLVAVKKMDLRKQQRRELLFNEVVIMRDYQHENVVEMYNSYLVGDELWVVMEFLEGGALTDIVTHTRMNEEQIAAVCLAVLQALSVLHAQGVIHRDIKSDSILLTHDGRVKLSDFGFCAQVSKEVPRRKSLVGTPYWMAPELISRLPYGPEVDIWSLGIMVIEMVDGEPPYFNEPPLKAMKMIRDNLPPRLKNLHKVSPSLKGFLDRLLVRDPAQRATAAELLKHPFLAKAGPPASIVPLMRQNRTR

PIK3C2B (human) = PIK3C2B (human) (UniProt O00750)
[4] = tested on: PIK3CA (human), P42336 [E542K]
PIM1 (human) = PIM1 (human) (UniProt P11309)
PIM3 (human) = PIM3 (human) (UniProt Q86V86)
PRKAA2 (human) = PRKAA2 (human) (UniProt P54646)
PRKCE (human) = PRKCE (human) (UniProt Q02156)
PRKCE (human), sequence (Q02156 whole entry, looked up): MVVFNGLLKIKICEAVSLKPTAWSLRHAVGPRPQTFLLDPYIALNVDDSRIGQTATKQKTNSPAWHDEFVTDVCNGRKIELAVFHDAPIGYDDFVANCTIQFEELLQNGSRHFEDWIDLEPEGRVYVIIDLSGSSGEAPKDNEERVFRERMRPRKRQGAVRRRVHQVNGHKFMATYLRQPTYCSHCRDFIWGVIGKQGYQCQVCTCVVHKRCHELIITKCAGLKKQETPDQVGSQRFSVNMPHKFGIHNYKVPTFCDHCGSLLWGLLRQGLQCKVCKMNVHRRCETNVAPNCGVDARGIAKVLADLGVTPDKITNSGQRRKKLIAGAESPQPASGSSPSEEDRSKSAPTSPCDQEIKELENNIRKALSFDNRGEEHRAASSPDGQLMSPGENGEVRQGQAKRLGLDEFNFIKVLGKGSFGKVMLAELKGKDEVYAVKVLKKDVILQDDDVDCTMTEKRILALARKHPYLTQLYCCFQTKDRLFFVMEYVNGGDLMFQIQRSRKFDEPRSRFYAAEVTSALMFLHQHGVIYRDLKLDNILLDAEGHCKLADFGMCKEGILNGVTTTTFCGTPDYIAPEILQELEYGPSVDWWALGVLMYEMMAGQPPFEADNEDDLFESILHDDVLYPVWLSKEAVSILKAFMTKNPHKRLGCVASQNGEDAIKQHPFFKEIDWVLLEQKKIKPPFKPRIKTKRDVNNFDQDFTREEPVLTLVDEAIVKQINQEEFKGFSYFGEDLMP

PTK6 (human) = PTK6 (human) (UniProt Q13882)
PTK6 (human), sequence (Q13882 whole entry, looked up): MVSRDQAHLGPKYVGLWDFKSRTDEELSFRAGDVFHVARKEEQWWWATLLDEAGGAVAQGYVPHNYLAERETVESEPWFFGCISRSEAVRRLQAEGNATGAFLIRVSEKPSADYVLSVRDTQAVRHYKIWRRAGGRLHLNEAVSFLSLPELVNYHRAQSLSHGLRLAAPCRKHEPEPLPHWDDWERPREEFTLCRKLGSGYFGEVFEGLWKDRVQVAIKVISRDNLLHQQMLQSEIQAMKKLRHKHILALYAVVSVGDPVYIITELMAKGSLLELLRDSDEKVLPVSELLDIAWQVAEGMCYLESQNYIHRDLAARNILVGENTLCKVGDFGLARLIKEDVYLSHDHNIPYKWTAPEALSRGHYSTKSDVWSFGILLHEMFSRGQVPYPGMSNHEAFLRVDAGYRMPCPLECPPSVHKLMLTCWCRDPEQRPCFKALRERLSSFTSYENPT

SRPK3 (human) = SRPK3 (human) (UniProt Q9UPE1)
STK32B (human) = STK32B (human) (UniProt Q9NY57)
STK32B (human), sequence (Q9NY57 whole entry, looked up): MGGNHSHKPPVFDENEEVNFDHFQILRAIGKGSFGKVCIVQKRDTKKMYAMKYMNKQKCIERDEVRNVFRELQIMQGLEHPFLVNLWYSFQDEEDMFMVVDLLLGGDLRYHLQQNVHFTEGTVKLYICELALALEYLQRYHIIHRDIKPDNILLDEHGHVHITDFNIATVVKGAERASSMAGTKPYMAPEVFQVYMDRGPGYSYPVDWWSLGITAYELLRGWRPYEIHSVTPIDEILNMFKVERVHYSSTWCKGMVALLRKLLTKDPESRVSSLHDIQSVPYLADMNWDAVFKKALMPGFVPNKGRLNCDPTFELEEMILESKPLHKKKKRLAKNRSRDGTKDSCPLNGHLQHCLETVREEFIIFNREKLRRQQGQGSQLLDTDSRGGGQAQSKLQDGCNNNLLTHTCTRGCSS

TAOK3 (human) = TAOK3 (human) (UniProt Q9H2K8)
TAOK3 (human), sequence (Q9H2K8 whole entry, looked up): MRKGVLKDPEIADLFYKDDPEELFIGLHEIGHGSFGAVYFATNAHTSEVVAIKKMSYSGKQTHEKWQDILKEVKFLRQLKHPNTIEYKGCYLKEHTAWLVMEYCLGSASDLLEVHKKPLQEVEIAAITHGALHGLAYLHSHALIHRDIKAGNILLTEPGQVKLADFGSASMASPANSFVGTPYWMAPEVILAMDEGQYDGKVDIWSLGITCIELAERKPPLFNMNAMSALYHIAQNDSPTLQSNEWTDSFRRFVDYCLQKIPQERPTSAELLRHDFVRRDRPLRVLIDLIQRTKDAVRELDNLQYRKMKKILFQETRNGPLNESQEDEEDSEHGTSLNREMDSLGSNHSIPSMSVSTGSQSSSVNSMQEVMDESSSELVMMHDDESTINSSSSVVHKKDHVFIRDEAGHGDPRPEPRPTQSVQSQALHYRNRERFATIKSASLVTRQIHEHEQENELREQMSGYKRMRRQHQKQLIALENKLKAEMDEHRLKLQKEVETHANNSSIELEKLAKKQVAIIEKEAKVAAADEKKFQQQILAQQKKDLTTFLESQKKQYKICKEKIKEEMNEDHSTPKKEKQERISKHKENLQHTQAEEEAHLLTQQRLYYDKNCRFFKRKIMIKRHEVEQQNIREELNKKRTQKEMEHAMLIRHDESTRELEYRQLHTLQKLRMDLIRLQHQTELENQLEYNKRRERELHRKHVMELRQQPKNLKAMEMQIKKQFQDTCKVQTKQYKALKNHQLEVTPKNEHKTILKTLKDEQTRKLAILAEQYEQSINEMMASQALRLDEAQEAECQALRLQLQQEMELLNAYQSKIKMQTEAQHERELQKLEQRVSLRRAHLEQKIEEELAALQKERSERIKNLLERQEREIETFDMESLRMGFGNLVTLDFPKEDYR

TNK1 (human) = TNK1 (human) (UniProt Q13470)
YES1 (human) = YES1 (human) (UniProt P07947)
ZAP70 (human) = ZAP70 (human) (UniProt P43403)

kinase still bound, per cent of control [1]: 11%
kinase still bound, per cent of control [2]: 5.2%
kinase still bound, per cent of control (ACVR2B (human)): 20%
kinase still bound, per cent of control (AKT1 (human)): 100%
kinase still bound, per cent of control (AXL (human)): 0.25%
kinase still bound, per cent of control (CDK17 (human)): 12%
kinase still bound, per cent of control (CDK19 (human)): 100%
kinase still bound, per cent of control (CDK9 (human)): 26%
kinase still bound, per cent of control (CSF1R (human)): 1.2%
kinase still bound, per cent of control (CSNK1E (human)): 18%
kinase still bound, per cent of control (CSNK2A1 (human)): 6.2%
kinase still bound, per cent of control (CSNK2A2 (human)): 8%
kinase still bound, per cent of control (DYRK1A (human)): 59%
kinase still bound, per cent of control (EPHB2 (human)): 77%
kinase still bound, per cent of control (FGR (human)): 1.4%
kinase still bound, per cent of control (GRK1 (human)): 60%
kinase still bound, per cent of control (GSK3A (human)): 0%
kinase still bound, per cent of control [3]: 0%
kinase still bound, per cent of control (MAPK1 (human)): 100%
kinase still bound, per cent of control (MAPK14 (human)): 92%
kinase still bound, per cent of control (MAPK6 (human)): 100%
kinase still bound, per cent of control (MAPKAPK5 (human)): 100%
kinase still bound, per cent of control (MARK3 (human)): 28%
kinase still bound, per cent of control (MLTK (human)): 26%
kinase still bound, per cent of control (NEK6 (human)): 85%
kinase still bound, per cent of control (NLK (human)): 88%
kinase still bound, per cent of control (PAK2 (human)): 40%
kinase still bound, per cent of control (PAK4 (human)): 21%
kinase still bound, per cent of control (PIK3C2B (human)): 100%
kinase still bound, per cent of control [4]: 100%
kinase still bound, per cent of control (PIM1 (human)): 62%
kinase still bound, per cent of control (PIM3 (human)): 30%
kinase still bound, per cent of control (PRKAA2 (human)): 4.2%
kinase still bound, per cent of control (PRKCE (human)): 90%
kinase still bound, per cent of control (PTK6 (human)): 84%
kinase still bound, per cent of control (SRPK3 (human)): 0.25%
kinase still bound, per cent of control (STK32B (human)): 100%
kinase still bound, per cent of control (TAOK3 (human)): 71%
kinase still bound, per cent of control (TNK1 (human)): 16%
kinase still bound, per cent of control (YES1 (human)): 6.4%
kinase still bound, per cent of control (ZAP70 (human)): 90%
SMILES: O=C1Nc2cc(Br)ccc2/C1=C1/Nc2ccccc2/C1=N\O
kinase still bound, per cent of control (MAPK15 (human)): 29%

kinase still bound, per cent of control [1]: 100%
kinase still bound, per cent of control [2]: 100%
kinase still bound, per cent of control (ACVR2B (human)): 100%
kinase still bound, per cent of control (AKT1 (human)): 86%
kinase still bound, per cent of control (AXL (human)): 100%
kinase still bound, per cent of control (CDK17 (human)): 79%
kinase still bound, per cent of control (CDK19 (human)): 100%
kinase still bound, per cent of control (CDK9 (human)): 89%
kinase still bound, per cent of control (CSF1R (human)): 97%
kinase still bound, per cent of control (CSNK1E (human)): 87%
kinase still bound, per cent of control (CSNK2A1 (human)): 100%
kinase still bound, per cent of control (CSNK2A2 (human)): 100%
kinase still bound, per cent of control (DYRK1A (human)): 100%
kinase still bound, per cent of control (EPHB2 (human)): 15%
kinase still bound, per cent of control (FGR (human)): 100%
kinase still bound, per cent of control (GRK1 (human)): 100%
kinase still bound, per cent of control (GSK3A (human)): 0.1%
kinase still bound, per cent of control [3]: 97%
kinase still bound, per cent of control (MAPK1 (human)): 100%
kinase still bound, per cent of control (MAPK14 (human)): 100%
kinase still bound, per cent of control (MAPK6 (human)): 100%
kinase still bound, per cent of control (MAPKAPK5 (human)): 100%
kinase still bound, per cent of control (MARK3 (human)): 100%
kinase still bound, per cent of control (MLTK (human)): 100%
kinase still bound, per cent of control (NLK (human)): 72%
kinase still bound, per cent of control (PAK2 (human)): 87%
kinase still bound, per cent of control (PAK4 (human)): 74%
kinase still bound, per cent of control (PIK3C2B (human)): 94%
kinase still bound, per cent of control [4]: 100%
kinase still bound, per cent of control (PIM1 (human)): 75%
kinase still bound, per cent of control (PIM3 (human)): 83%
kinase still bound, per cent of control (PRKAA2 (human)): 96%
kinase still bound, per cent of control (PRKCE (human)): 100%
kinase still bound, per cent of control (PTK6 (human)): 92%
kinase still bound, per cent of control (SRPK3 (human)): 100%
kinase still bound, per cent of control (STK32B (human)): 100%
kinase still bound, per cent of control (TAOK3 (human)): 54%
kinase still bound, per cent of control (TNK1 (human)): 100%
kinase still bound, per cent of control (YES1 (human)): 83%
kinase still bound, per cent of control (ZAP70 (human)): 100%
SMILES: COc1ccc(CNC(=O)Nc2ncc([N+](=O)[O-])s2)cc1
kinase still bound, per cent of control (MAPK15 (human)): 51%

kinase still bound, per cent of control [1]: 100%
kinase still bound, per cent of control [2]: 100%
kinase still bound, per cent of control (ACVR2B (human)): 100%
kinase still bound, per cent of control (AKT1 (human)): 100%
kinase still bound, per cent of control (AXL (human)): 100%
kinase still bound, per cent of control (CDK17 (human)): 100%
kinase still bound, per cent of control (CDK19 (human)): 100%
kinase still bound, per cent of control (CDK9 (human)): 58%
kinase still bound, per cent of control (CSF1R (human)): 90%
kinase still bound, per cent of control (CSNK1E (human)): 76%
kinase still bound, per cent of control (CSNK2A1 (human)): 65%
kinase still bound, per cent of control (CSNK2A2 (human)): 100%
kinase still bound, per cent of control (DYRK1A (human)): 100%
kinase still bound, per cent of control (EPHB2 (human)): 100%
kinase still bound, per cent of control (FGR (human)): 100%
kinase still bound, per cent of control (GRK1 (human)): 96%
kinase still bound, per cent of control (GSK3A (human)): 0%
kinase still bound, per cent of control [3]: 92%
kinase still bound, per cent of control (MAPK1 (human)): 100%
kinase still bound, per cent of control (MAPK14 (human)): 98%
kinase still bound, per cent of control (MAPK6 (human)): 100%
kinase still bound, per cent of control (MAPKAPK5 (human)): 96%
kinase still bound, per cent of control (MARK3 (human)): 100%
kinase still bound, per cent of control (NEK6 (human)): 100%
kinase still bound, per cent of control (NLK (human)): 86%
kinase still bound, per cent of control (PAK2 (human)): 94%
kinase still bound, per cent of control (PAK4 (human)): 100%
kinase still bound, per cent of control (PIK3C2B (human)): 91%
kinase still bound, per cent of control [4]: 100%
kinase still bound, per cent of control (PIM1 (human)): 94%
kinase still bound, per cent of control (PIM3 (human)): 95%
kinase still bound, per cent of control (PRKAA2 (human)): 56%
kinase still bound, per cent of control (PRKCE (human)): 100%
kinase still bound, per cent of control (PTK6 (human)): 100%
kinase still bound, per cent of control (SRPK3 (human)): 100%
kinase still bound, per cent of control (STK32B (human)): 100%
kinase still bound, per cent of control (TAOK3 (human)): 13%
kinase still bound, per cent of control (TNK1 (human)): 80%
kinase still bound, per cent of control (YES1 (human)): 100%
kinase still bound, per cent of control (ZAP70 (human)): 100%
SMILES: Cc1cnc(-c2cnc(NCCNc3ccc(C#N)cn3)nc2-c2ccc(Cl)cc2Cl)[nH]1
kinase still bound, per cent of control (MAPK15 (human)): 68%
